EP1611892A2, “Pharmaceutical compositions comprising drospirenone” (Schering Aktiengesellschaft, priority 2000, dated 2001)

Columns and labels:
Assay type in all cases: physicochemical
[1] = Solubility in water and aqueous buffers; settings: in water and aqueous buffers at various pH values
[2] = Chemical stability under acid and alkaline conditions
[3] = In vitro dissolution from a tablet preparation (USP XXIII Paddle Method); settings: drospirenone in micronized form; rapid dissolution defined as at least 70% over about 30 minutes from a 3 mg tablet in 900 ml of water at 37°C, 50 rpm

- solubility [1]: sparingly soluble
- stability under acid conditions ([2]; acid conditions): rearranged to an inactive isomer
- stability under alkaline conditions ([2]; alkaline conditions): hydrolysed
- dissolution of the active compound from the composition in vitro [3]: rapid dissolution
Structure (SMILES): C[C@]12CCC(=O)C=C1[C@@H]1C[C@@H]1[C@H]1[C@@H]3[C@@H]4C[C@@H]4[C@@]4(CCC(=O)O4)[C@@]3(C)CC[C@@H]12 [drospirenone, 6β,7β;15β;16β-dimethylene-3-oxo-17α-preg-4-ene-21,17-carbolactone]
